Where a name gives a salt, the structure may show the parent alone.
Experiments:
[1] = system: TNF-α release from hPBMCs; assay: Assay for inhibition of TNF-α release from hPBMCs (IFNγ/LPS stimulated); format: cell-based; settings: Homo sapiens, IFNγ (10 ng/ml) and LPS (5 μg/ml), 3 h
Protocol: Assay for Inhibition of TNF-α Release from hPBMCs
Human peripheral blood mononuclear cells (hPBMCs) are prepared from the peripheral blood of healthy volunteers using Ficoll-Plaque Plus (Amersham) density separation according to the method described within. Cells are seeded at a 1×10^5 cells/well in 96-well plates in RPMI 1640 medium (Invitrogen) containing 10% (v/v) fetal calf serum (FCS). Cells are pre-incubated with serial dilutions of test compound (0.25% v/v DMSO final) for 30 min at 37° C. Cells are stimulated with the addition of IFNγ (10 ng/ml) and lipopolysaccharide(LPS) (5 μg/ml) per well and incubated for 3 h at 37° C. Following a brief centrifugation (250×g for 2 min), supernatant (10 μl) samples are taken from each well and measured against a TNFα calibration curve using a HTRF TNFα kit (CisBio) as described within.
Using the TNF-α release assay described above, compounds of the formula I can be shown to have the following inhibition values: […]

human MK2 = human MK2 (Homo sapiens, UniProt P49137); assay: MAPKAPK2 kinase assay (TR-FRET, Hsp27 peptide substrate)
[2] = biological target: T1, MAPKAPK2 enzyme (HIS-MK2, Invitrogen PV4019) (Homo sapiens, UniProt P49137); assay: Alternative MAPKAPK2 assay (Caliper microfluidic mobility shift, HSP27-peptide); format: biochemical; settings: HIS-MK2 0.013 nM, ATP 10 μM, 60 min at 30° C.
T1 construct: His; purchased Invitrogen PV4019
T1 sequence (P49137 whole entry): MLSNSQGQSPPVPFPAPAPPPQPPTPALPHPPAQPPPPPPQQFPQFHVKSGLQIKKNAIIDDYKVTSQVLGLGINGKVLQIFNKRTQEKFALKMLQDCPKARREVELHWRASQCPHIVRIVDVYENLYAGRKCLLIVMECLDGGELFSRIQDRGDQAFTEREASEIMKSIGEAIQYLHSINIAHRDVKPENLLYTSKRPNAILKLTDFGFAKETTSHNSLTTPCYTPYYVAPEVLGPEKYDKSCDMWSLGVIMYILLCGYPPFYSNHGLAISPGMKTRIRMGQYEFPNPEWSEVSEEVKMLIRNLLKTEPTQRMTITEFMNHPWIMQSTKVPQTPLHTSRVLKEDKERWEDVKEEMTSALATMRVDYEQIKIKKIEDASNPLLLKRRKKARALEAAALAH

Chain of human MK2 (P49137 whole entry): as above

| Structure (SMILES) | IC50 [1] [nM] | IC50 (human MK2) [nM] | IC50 [2] [nM] |
| --- | --- | --- | --- |
| CC(C)Oc1ccc(-c2cc3c(cn2)CCc2c-3[nH]c3c2C(=O)NCC32CN(C)C2)cn1 [Example 185, 2-(3-Aminomethyl-1-methyl-azetidin-3-yl)-8-(6-isopropoxy-pyridin-3-yl)-4,5-dihydro-1H-pyrrolo[2,3-f]isoquinoline-3-carboxylic acid lactam hydrochloride] | 134 | – | < 3 |
| O=C1NCC2(CC2)c2[nH]c3c(c21)CCc1cnc(-c2ccc(CN4CCOCC4)c(F)c2)cc1-3 [Example 301, 2-(3-Fluoro-4-morpholin-4-ylmethyl-phenyl)-10-spirocyclopropyl-5,6,8,9,10,11-exahydro-3,8,11-triaza-benzo[a]fluoren-7-one] | 256 | – | 29 |
| COc1ccc(-c2ncc3c(n2)-c2[nH]c4c(c2CC3)C(=O)NCC42CN(C)C2)cc1 [Example 207, 2-(3-Aminomethyl-1-methyl-azetidin-3-yl)-8-(4-methoxy-phenyl)-4,5-dihydro-1H-1,7,9-triaza-cyclopenta[a]naphthalene-3-carboxylic acid lactam] | 130 | – | – |
| O=C1NCC2(CNC2)c2[nH]c3c(c21)CCc1cnc(-c2cccc(Cl)c2)cc1-3 [Example 187, 2-[3-Aminomethyl-azetidin-3-yl]-8-(3-chloro-phenyl)-4,5-dihydro-1H-pyrrolo[2,3-f]isoquinoline-3-carboxylic acid lactam hydrochloride] | 156 | – | < 3 |
| CN1CC2(CNC(=O)c3c2[nH]c2c3CCc3cnc(-c4ccccc4F)cc3-2)C1 [Example 172, 2-(3-Aminomethyl-1-methyl-azetidin-3-yl)-8-(2-fluoro-phenyl)-4,5-dihydro-1H-pyrrolo[2,3-f]isoquinoline-3-carboxylic acid lactam] | 347 | – | – |
| Cc1ccc(-c2cc3c(cn2)CCc2c-3[nH]c3c2C(=O)NC2(CCC2)C3)cn1 [Example 103, 2-(1-Amino-cyclobutylmethyl)-8-(6-methyl-pyridin-3-yl)-4,5-dihydro-1H-pyrrolo[2,3-f]isoquinoline-3-carboxylic acid lactam] | 336 | – | 57 |

Continued, values first:

| IC50 [1] [nM] | IC50 (human MK2) [nM] | IC50 [2] [nM] | Structure (SMILES) |
| --- | --- | --- | --- |
| 333 | – | – | O=C1NC2(CC2)C2(CC2)c2[nH]c3c(c21)CCc1cnc(-c2cccc(F)c2)cc1-3 [Example 195, 2-(1′-Amino-bicyclopropyl-1-yl)-8-(3-fluoro-phenyl)-4,5-dihydro-1H-pyrrolo[2,3-f]isoquinoline-3-carboxylic acid lactam] |
| 320 | 47 | – | COCCOc1cncc(-c2cc3c(cn2)CCc2c-3[nH]c3c2C(=O)NCC32CC2)c1 [Example 1, 2-(1-Aminomethyl-cyclopropyl)-8-[5-(2-methoxy-ethoxy)-pyridin-3-yl]-4,5-dihydro-1H-pyrrolo[2,3-f]isoquinoline-3-carboxylic acid lactame] |
| 311 | – | 72 | COc1cncc(-c2cc3c(cn2)CCc2c-3[nH]c3c2C(=O)NC2(CCC2)C3)c1 [Example 99, 2-(1-Amino-cyclobutylmethyl)-8-(5-methoxy-pyridin-3-yl)-4,5-dihydro-1H-pyrrolo[2,3-f]isoquinoline-3-carboxylic acid lactam] |
| 264 | – | – | N#Cc1ccc(-c2cc3c(cn2)CCc2c-3[nH]c3c2C(=O)NCC32CC2)cn1 [Example 127, 2-(1-Aminomethyl-cyclopropyl)-8-(6-cyano-pyridin-3-yl)-4,5-dihydro-1H-pyrrolo[2,3-f]isoquinoline-3-carboxylic acid lactam] |
| 220 | – | – | COc1ccc(-c2cc3c(cn2)CCc2c-3[nH]c3c2C(=O)NC2(CC2)C3)cc1 [Example 40, 2-(1-Amino-cyclopropylmethyl)-8-(4-methoxy-phenyl)-4,5-dihydro-1H-pyrrolo[2,3-f]isoquinoline-3-carboxylic acid lactam] |

— patent US7838674B2, “Tetracyclic lactame derivatives” (Novartis AG, priority 2007, dated 2010)
